For the test, the target named is T1, GluA1 AMPA receptors (Rattus norvegicus, UniProt P19490).
T1 construct: expressed in transfected cells; host or cells: Xenopus laevis oocytes (mRNA injection)
The experiment in a line: TEVC on Xenopus oocytes, GluA1 AMPA receptors. The class given is cell-based. The conditions noted are these: for Inhibition, individual values: GluA1, single cells. The source says: We used cDNA coding for rat GluN1–1a (named GluN1 herein) (GenBank: U08261.1), rat GluN2A (GenBank: D13211.1), mouse GluN2B (GenBank: D10651.2), rat GluA1 flop (GenBank: M36418.2), and rat Myc-GluA2(Q)-flip (GenBank: AF164344.1) cloned into pcDNA3-based expression plasmids. GluK2 (GenBank: Z11548.1) corresponds to the fully RNA-edited version.[80] The GluN2B-ΔNTD construct is from ref[45] and GluN2B–N615K is from ref[81]. Single mutants GluN2B-Q110G and GluN1-L135H were from ref[19]. The GluA2 cDNA contains a Myc tag ([…]) fused between the signal peptide and the N-terminus sequences, and the GluA2 subunit is […] for its Q/R/N site (GluA2(Q)) to allow permeation of homomeric GluA2 receptors.[2] cDNAs coding for rat GluN2C (GenBank: M91563.1) and GluN2D subunits (GenBank: L31611.1) were in prK5 plasmids.
The expression of recombinant GluA1, GluA2(Q), and GluK2 receptors was obtained by oocyte injection of 50 nL of mRNAs (at 1 μg/μL). mRNAs were generated using the T7 (GluA1 and GluA2) and T3 (GluK2) mMessage mMachine transcription kits (Invitrogen) after cDNA linearization with the SacII restriction enzyme. The injected oocytes were stored in the same conditions as for NMDARs and used 72–96 h postinjection.
TEVC recordings were performed 1–3 days following injection. TEVC recordings were performed using an Oocyte Clamp amplifier OC-725 (Warner Instruments) and computer-controlled via a 1440A Digidata (Molecular Devices). Currents were sampled at 100 Hz and low-pass-filtered at 20 Hz using an 8-pole Bessel filter (900 Series, Frequency Devices Inc.). Data were collected with Clampfit 10.3. During the recording, the cells were continuously perfused with external recording Ringer solution at pH 7.3 (in mM: 100 NaCl, 0.3 BaCl2, 5 HEPES, and 2.5 KCl, pH adjustment to 7.3 by the addition of NaOH). The NMDA currents were induced by simultaneous application of L-glutamate and glycine (agonist solution) at saturating concentration (100 μM each), and DTPA (10 μM) to prevent receptor inhibition by ambient zinc (∼20 nM).[83] A control solution (100 μM glycine and 10 μM DTPA in Ringer pH 7.3) was used for washout of drug and test solutions. AMPA and kainate receptor currents were induced in the same conditions as NMDA currents (100 μM glutamate and glycine + 10 μM DTPA). Oocytes expressing GluK2 kainate receptors were treated with concanavalin A ([…], equivalent to 1.1 mg/mL) during 10 min before recording to decrease receptor desensitization. Unless notified, recordings were performed at a holding potential of −60 mV. All experiments were performed at room temperature. […]

Molecules are shown by their SMILES. Several values for one entry are separate records, joined by “and”; a condition that tells them apart may be missing. Equal values may be shown once. Read-outs that look alike come from different tables or passages of the source.

T1 sequence (P19490 19-907): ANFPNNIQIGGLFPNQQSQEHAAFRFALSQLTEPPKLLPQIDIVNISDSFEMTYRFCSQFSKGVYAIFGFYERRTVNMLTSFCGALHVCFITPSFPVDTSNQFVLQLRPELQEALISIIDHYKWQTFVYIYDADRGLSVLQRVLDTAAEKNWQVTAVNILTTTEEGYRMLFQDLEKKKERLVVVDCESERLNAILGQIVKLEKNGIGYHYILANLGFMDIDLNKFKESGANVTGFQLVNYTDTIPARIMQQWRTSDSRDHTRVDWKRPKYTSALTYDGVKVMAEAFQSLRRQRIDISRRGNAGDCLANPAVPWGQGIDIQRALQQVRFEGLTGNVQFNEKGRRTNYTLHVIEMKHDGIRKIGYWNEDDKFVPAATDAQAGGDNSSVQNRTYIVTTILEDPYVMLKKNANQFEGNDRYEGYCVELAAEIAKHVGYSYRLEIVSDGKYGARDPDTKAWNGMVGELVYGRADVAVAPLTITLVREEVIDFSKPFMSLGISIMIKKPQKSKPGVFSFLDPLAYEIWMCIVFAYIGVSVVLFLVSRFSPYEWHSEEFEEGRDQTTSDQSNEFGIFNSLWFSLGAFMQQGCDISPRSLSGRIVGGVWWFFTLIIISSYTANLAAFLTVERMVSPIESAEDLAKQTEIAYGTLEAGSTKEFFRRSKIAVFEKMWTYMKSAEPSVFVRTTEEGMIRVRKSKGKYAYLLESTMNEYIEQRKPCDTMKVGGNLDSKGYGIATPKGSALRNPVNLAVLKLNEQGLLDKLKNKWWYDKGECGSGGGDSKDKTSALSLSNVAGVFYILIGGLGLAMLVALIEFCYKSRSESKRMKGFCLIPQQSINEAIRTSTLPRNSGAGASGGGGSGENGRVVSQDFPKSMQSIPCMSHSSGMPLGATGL

`c1ccc(/N=N/c2ccc(CCNc3ccncc3)cc2)cc1` [OptoNAM-3, (E)-N-(4-(Phenyldiazenyl)phenethyl)pyridin-4-amine]: the inhibition at 10 µM runs as follows: (10 µM OptoNAM-3 365 nm PSS, construct GluA1, read-out: Inhibition (%)) -6%; (10 µM OptoNAM-3 dark PSS (trans), construct GluA1, read-out: Inhibition (%)) -7.7%; (10 µM, dark PSS, read-out: inhibition of GluA1 currents) -7.4 ± 2.7%. Further, the “Inhibition, individual values” is -0.02846 and -0.1048 and -0.04691 (10 µM OptoNAM-3 dark PSS (trans) as headed, second block); -0.02273 and -0.0986 and -0.1111 (10 µM OptoNAM-3 dark PSS (trans), first block). Moreover, for the setting “10 µM, dark PSS”, the “inhibition of GluA1 currents” value is reported as “no effect”.

(Values after PMC11413854, “Reversible Control of Native GluN2B-Containing NMDA Receptors with Visible Light” (ACS Chemical Neuroscience, 2024).)
